Data published in publication PMC9317696, “New Benzil and Isoflavone Derivatives with Cytotoxic and NO Production Inhibitory Activities from Placolobium vietnamense” (Molecules, 2022).
Read-outs that look alike come from different tables or passages of the source.

Legend:
Type in all cases: cell-based
Hep G2 cells = test: Cytotoxicity assay (MTT) against Hep G2 cell line; settings: Homo sapiens
Protocol: According to a previous procedure, the cytotoxic evaluation of 1–8 against the growth of human hepatocellular carcinoma (Hep G2) cell line was carried out. The positive control was ellipticine, a powerful anticancer medication with various modes of action. The cancer cells were grown in Dulbecco’s Modified Essential Medium (DMEM) at 37 °C in a 5 % CO2 environment with 10% fetal bovine serum (FBS), 1% penicillin and streptomycin, and 1% L-glutamine. The investigated compounds were added at concentrations ranging from 0.5 to 128 µg/mL by dissolving in DMSO (20 mg/mL), and the incubation was carried out once more for 72 h under the same conditions. Following the procedure, an MTT solution (10 µL, 5 mg/mL) was added to each well. The percentage of cell viability vs. sample concentration was plotted using SigmaPlot 10 (Systat Software Inc., San Jose, CA, USA) to calculate the IC50 values.

[1] = system: NO production in macrophage RAW 264.7 cells; test: Inhibition of LPS-induced NO production in RAW 264.7 macrophages (Griess); settings: Mus musculus
Protocol: (§1) RAW 264.7 cells were stocked in Dulbecco’s Modified Essential and grown at the condition of 37 °C in DMEM supplemented with 10% heat-inactivated FBS, streptomycin sulfate (100 µg/mL), and penicillin (100 units/mL) in a humidified environment of 5% CO2. The RAW 264.7 cells were pre-incubated every two days.
The RAW 264.7 cells were stimulated with or without 1 μg/mL of LPS (lipopolysaccharide), which was purchased from Sigma Chemical Co. (St. Louis, MO, USA), for 24 h with or without 0.5% DMSO, celastrol, and isolated compounds at the indicated concentrations. The culture supernatant (100 μL) was then reacted with 100 μL of Griess reagent. After the Griess assay, the remaining cells were used to screen for their viability using colorimetric assay-MTT (Sigma Chemical Co., St. Louis, MO, USA).

[2] = Cell viability assay (MTT) on RAW 264.7 cells; settings: mouse, read-out: cytotoxicity toward RAW 264.7 cells IC50
Protocol: as §1
The cell viability assay was used to determine the cytotoxic effect of the isolated compounds on RAW 264.7 cells. At a density of 1 × 10^5 cells per well, RAW 264.7 cells were seeded on a 96-well plate and allowed to adhere for 4 h. Then, the cells were treated with 0.5% DMSO, celastrol, and isolated compounds at the indicated concentrations. Celastrol was used as a positive control. After incubating 24 h, the viable cells were measured with a colorimetric assay based on the mitochondria’s ability in viable cells to reduce MTT [18]. The viability cells were treated with vehicle only and were defined as 100% viable. [OD570 (treated cell culture) × 100]/OD570 was the formula used to determine the percentage of macrophage surviving cells after treatment (vehicle control).

[3] = HepG2, 72 h, read-out: Cytotoxicity (IC50, µM)
[4] = RAW264.7, RAW 264.7 cells, 1 μg/mL LPS, 24 h, Griess reagent, mean of three experiments ± SD, read-out: NO Production (IC50)

Row | Compound | IC50 [1, 4] [µM] | IC50 (Hep G2 cells; [3]) [µM] | IC50 (Hep G2 cells; HepG2, Hep G2 cells, 72 h, MTT, mean of three experiments ± SD, read-out: Cytotoxicity (IC50)) [µM] | IC50 ([1]; RAW264.7, 24 h, read-out: NO Production (IC50, µM)) [µM] | IC50 at 24 h [2] [µM]
1 | COc1ccc(-c2coc3c4c(ccc3c2=O)OC(C)(C)C=C4)cc1OC [Compound 8, 4′,5′-dimethoxy-6,6-dimethylpyranoisoflavone] | 54.7 ± 0.2 | 35.6 ± 0.3 | – | – | –
2 | COc1cc2c(=O)c(-c3ccc4c(c3)OCO4)coc2c2c1OC(C)(C)C=C2 [Compound 6, durmillone] | > 100 | 71.6 ± 0.6 | – | – | –
3 | Cc1c2ccncc2c(C)c2c1[nH]c1ccccc12 [Ellipticine, ellipticine, reference compound] | – | – | 0.43 ± 0.03 | – | –
4 | COc1cc2c(cc1-c1coc3c4c(c(OC)cc3c1=O)OC(C)(C)C=C4)OCO2 [Compound 5, ichthynone] | > 100 | 99.1 ± 0.9 | – | – | –
5 | CC1=C(O)C(=O)C=C2C1=CC=C1[C@@]2(C)CC[C@@]2(C)[C@@H]3C[C@](C)(C(=O)O)CC[C@]3(C)CC[C@]12C [Celastrol, celastrol, reference compound] | – | – | – | 1 ± 0.1 | –
6 | CC1(C)C=Cc2c(ccc3c(=O)c(-c4ccc5c(c4)OCO5)coc23)O1 [Compound 7, calopogoniumisoflavone B] | > 100 | 66.6 ± 0.5 | – | – | –

Second part, led by results:

Row | IC50 [1, 4] [µM] | Compound | IC50 (Hep G2 cells; [3]) [µM] | IC50 (Hep G2 cells; HepG2, Hep G2 cells, 72 h, MTT, mean of three experiments ± SD, read-out: Cytotoxicity (IC50)) [µM] | IC50 ([1]; RAW264.7, 24 h, read-out: NO Production (IC50, µM)) [µM] | IC50 at 24 h [2] [µM]
7 | 47.4 ± 0.3 | COc1cc(OC)c(OC)cc1CC(=O)c1cc(OC)c2c(c1O)C=CC(C)(C)O2 [Compound 3, placovinone C] | 22.9 ± 0.5 | – | – | –
8 | 31 ± 0.3 | COc1cc(OC)c(C(=O)C(=O)c2cc(OC)c3c(c2O)C=CC(C)(C)O3)cc1OC [Compound 2, placovinone B] | 19.8 ± 1.5 | – | – | –
9 | 13.7 ± 0.5 | COc1ccc(-c2coc3c4c(c(OC)cc3c2=O)OC(C)(C)CC4)cc1 [Compound 1, placovinone A] | 8 ± 0.2 | – | – | 79.2
10 | 15.5 ± 0.4 | COc1ccc(CC(=O)c2cc(OC)c3c(c2O)C=CC(C)(C)O3)cc1 [Compound 4, placovinone D] | 23.4 ± 0.5 | – | – | 42.6
